Experimental findings from the NIST ThermoML archive (doi:10.1016/j.fluid.2015.04.014) are described below.

± gives the expanded uncertainty stated by the source.

For this data set the following is noted: Crystal; visual observation.

For `CC1(C)[C@@H]2CC[C@@]1(CS(=O)(=O)O)C(=O)C2` [(1S)-(+)-10-camphorsulfonic acid], the Normal melting temperature came to 198.00 ± 4 °C.
